# Reference: US20250101041A1, “POSITIVE ALLOSTERIC MODULATORS OF THE MUSCARINIC ACETYLCHOLINE RECEPTOR M4” (Vanderbilt University, priority 2022, published 2025)
# Biological target: T1, human mAChR M4 (Homo sapiens, UniProt P08173)
# T1 construct: expressed in transfected cells; host or cells: CHO-K1 (American Type Culture Collection), stably expressing hM4 and Gqi5
# T1 sequence (P08173 1-479): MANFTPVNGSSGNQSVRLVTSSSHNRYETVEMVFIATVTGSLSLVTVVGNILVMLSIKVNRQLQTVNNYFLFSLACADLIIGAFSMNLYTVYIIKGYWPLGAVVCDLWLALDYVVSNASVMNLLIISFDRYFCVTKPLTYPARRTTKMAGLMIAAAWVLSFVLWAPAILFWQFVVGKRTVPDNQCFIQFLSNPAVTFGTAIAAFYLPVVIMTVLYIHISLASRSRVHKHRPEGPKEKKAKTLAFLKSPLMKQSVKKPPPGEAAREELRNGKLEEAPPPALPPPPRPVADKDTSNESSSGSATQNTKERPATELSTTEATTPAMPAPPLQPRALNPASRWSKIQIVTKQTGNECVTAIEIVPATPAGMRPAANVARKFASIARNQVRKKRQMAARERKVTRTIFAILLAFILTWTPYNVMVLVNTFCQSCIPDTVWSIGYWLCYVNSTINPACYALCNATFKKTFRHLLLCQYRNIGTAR
# Experiment: mAChR M4 cell-based functional assay: calcium mobilization (Fluo-4, FDSS), potentiation of EC20 acetylcholine response in hM4-Gqi5 CHO-K1 cells
# Conditions: human M4; for Emax at 30 µM: CHO-K1, % ACh maximum at 30 μM; for EC50: potentiation of EC20 acetylcholine response, calcium mobilization; for Emax (%)*: % ACh maximum at 30 μM
# Experimental: Human and rat M4 cDNAs, along with the chimeric G protein Gqi5, were transfected into Chinese hamster ovary (CHO-K1) cells purchased from the American Type Culture Collection using Lipofectamine2000. hM4-Gqi5 cells were grown in Ham's F-12 medium containing 10% heat-inactivated fetal bovine serum (FBS), 20 mM HEPES, 50 μg/mL G418 sulfate, and 500 μg/mL Hygromycin B. rM4-Gqi5 cells were grown in DMEM containing 10% heat-inactivated FBS, 20 mM HEPES, 400 μg/mL G418 sulfate, and 500 μg/mL Hygromycin B.
# For high throughput measurement of agonist-evoked increases in intracellular calcium, CHO-K1 cells stably expressing muscarinic receptors were plated in growth medium lacking G418 and hygromycin at 15,000 cells/20 μL/well in Greiner 384-well black-walled, tissue culture (TC)-treated, clear-bottom plates (VWR). Cells were incubated overnight at 37° C. and 5% CO2. The next day, cells were washed using an ELX 405 (BioTek) with assay buffer; the final volume was then aspirated to 20 μL. Next, 20 μL of a […] of Fluo-4/acetoxymethyl ester (Invitrogen, Carlsbad, CA), prepared as a 2.3 mM stock in DMSO and mixed in a 1:1 ratio with 10% (w/v) Pluronic F-127 and diluted in assay buffer, was added to the wells and the cell plates were incubated for 50 min at 37° C. and 5% CO2. Dye was removed by washing with the ELX 405 and the final volume was aspirated to 20 μL. Compound master plates were formatted in an 11 point concentration-response curve (CRC) format (1:3 dilutions) in 100% DMSO with a starting concentration of 10 mM using a BRAVO liquid handler (Agilent). Test compound CRCs were then transferred to daughter plates (240 nL) using the Echo acoustic plate reformatter (Labcyte, Sunnyvale, CA) and then diluted into assay buffer (40 μL) to a 2× stock using a Thermo Fisher Combi (Thermo Fisher Scientific, Waltham, MA).
# Calcium flux was measured using the Functional Drug Screening System (FDSS) 6000 or 7000 (Hamamatsu Corporation, Tokyo, Japan) as an increase in the fluorescent static ratio. Compounds were applied to cells (20 μL, 2X) using the automated system of the FDSS at 2-4 seconds into the protocol and the data were collected at 1 Hz. At 144 seconds, 10 μL of an EC20 concentration of the muscarinic receptor agonist acetylcholine was added (5×), followed by the addition of 12 μL of an […] concentration of acetylcholine at the 230 second time point (5×). Agonist activity was analyzed as a concentration-dependent increase in calcium mobilization upon compound addition. Positive allosteric modulator activity was analyzed as a concentration-dependent increase in the EC20 acetylcholine response. Antagonist activity was analyzed as a concentration-dependent decrease in the EC20 acetylcholine response. Concentration-response curves were generated using a four-parameter logistical equation in XLFit curve fitting software (IDBS, Bridgewater, NJ) for Excel (Microsoft, Redmond, WA) or Prism (GraphPad Software, Inc., San Diego, CA).
# Compounds were synthesized as described above. Activity (EC50 and Emax) was determined in the mAChR M4 cell-based functional assay as described above and the data are shown in Table 4. The compound number corresponds to the compound numbers used in Tables 1-3.
SMILES,Emax at 30 µM,EC50,Emax (%)*
"COCc1cc(=O)n2nc(N3Cc4cc(C(F)(F)F)cnc4C(C)C3)c(C)c(C)c2n1 (single isomer, unassigned) [Compound 1-376]",106%,325 nM,
"COCc1cc(=O)n2nc(N3Cc4cc(C(F)(F)F)cnc4C(C)C3)c(C)c(C)c2n1 (single isomer, unassigned) [Compound 1-377]",,365 nM,112%
"Cc1c(N2CCc3ncc(C(F)(F)F)cc3C2C)nn2c(=O)ccnc2c1C (single isomer, unassigned) [Compound 1-385, 8,9-dimethyl-7-(5-methyl-3-(trifluoromethyl)-7,8-dihydro-1,6-naphthyridin-6(5H)-yl)-4H-pyrimido[1,2-b] pyridazin-4-one]",,1730 nM,42%
"Cc1c(N2CCc3ncc(C(F)(F)F)cc3C2C)nn2c(=O)ccnc2c1C (single isomer, unassigned) [Compound 1-386, 8,9-dimethyl-7-(5-methyl-3-(trifluoromethyl)-7,8-dihydro-1,6-naphthyridin-6(5H)-yl)-4H-pyrimido[1,2-b] pyridazin-4-one]",,950 nM,80%
"Cc1cc2nccc(=O)n2nc1N1CCc2ncc(N3CCOC(c4ccccc4)C3)cc2C1 (stereo in doubt) [Compound 2-73, (S)-8-methyl-7-(3-(2-phenylmorpholino)-7,8-dihydro-1,6-naphthyridin-6(5H)-yl)-4H-pyrimido[1,2-b]pyridazin-4-one]",87%,,
"Cc1cc2nccc(=O)n2nc1N1CCc2ncc(N3CCOC(c4ccccc4)C3)cc2C1 (stereo in doubt) [Compound 2-96, (R)-8-methyl-7-(3-(2-phenylmorpholino)-7,8-dihydro-1,6-naphthyridin-6(5H)-yl)-4H-pyrimido[1,2-b]pyridazin-4-one]",42%,1430 nM,
"Cc1cc2ncc(Cl)c(=O)n2nc1N1CCc2ncc(C(F)(F)F)cc2C1 [Compound 1-4, 3-chloro-8-methyl-7-(3-(trifluoromethyl)-7,8-dihydro-1,6-napthyridin-6(5H)-yl)-4H-pyrimido[1,2-b]pyridazin-4-one]",96%,181 nM,

# The remaining lines, values ahead:
Emax at 30 µM,EC50,Emax (%)*,SMILES
81%,300 nM,,"Cc1cc2nccc(=O)n2nc1N1CCc2ncc(C(F)(F)F)cc2C1 [Compound 1-1, 8-methyl-7-(3-(trifluoromethyl)-7,8-dihydro-1,6-naphthyridin-6(5H)-yl)-4H-pyrimido[1,2-b]pyridazin-4-one]"
87%,501 nM,,"Cc1cc2nccc(=O)n2nc1N1CCc2ncc(-c3cn(C)nc3C)cc2C1 [Compound 1-2, 7-(3-(1,3-dimethyl-1H-pyrazol-4-yl)-7,8-dihydro-1,6-naphthyridin-6(5H)-yl)-8-methyl-4H-pyrimido[1,2-b]pyridazin-4-one]"
76%,99 nM,,"Cc1ccc(-c2cnc3c(c2)CN(c2nn4c(=O)ccnc4cc2C)CC3)cn1 [Compound 1-3, 8-methyl-7-(3-(6-methylpyridin-3-yl)-7,8-dihydro-1,6-naphthyridin-6(5H)-yl)-4H-pyrimido[1,2-b]pyridazin-4-one]"
86%,422 nM,,"Cc1ncc(-c2cnc3c(c2)CN(c2nn4c(=O)ccnc4cc2C)CC3)s1 [Compound 1-5, 8-methyl-7-(3-(2-methylthiazol-5-yl)-7,8-dihydro-1,6-naphthyridin-6(5H)-yl)-4H-pyrimido[1,2-b]pyridazin-4-one]"
83%,736 nM,,"Cc1cc2nccc(=O)n2nc1N1CCc2ncc(-c3cnn(C)c3)cc2C1 [Compound 1-6, 8-methyl-7-(3-(1-methyl-1H-pyrazol-4-yl)-7,8-dihydro-1,6-naphthyridin-6(5H)-yl)-4H-pyrimido[1,2-b]pyridazin-4-one]"
81%,308 nM,,"Cc1cc2nccc(=O)n2nc1N1CCc2ncc(-c3cnn(C4CC4)c3)cc2C1 [Compound 1-8, 7-(3-(1-cyclopropyl-1H-pyrazol-4-yl)-7,8-dihydro-1,6-naphthyridin-6(5H)-yl)-8-methyl-4H-pyrimido[1,2-b]pyridazin-4-one]"
